In patent US20230107941A1, “HEPATITIS B CAPSID ASSEMBLY MODULATORS” (Venatorx Pharmaceuticals, Inc., priority 2019, published 2023):

Assays:
[1] = tested on: HBV; assay: In vitro antiviral assay: anti-HBV replication in HepAD38 cells (extracellular HBV DNA by QPCR); format: cell-based, hepatitis B virus (genotype D, serotype ayw); details: Hepatitis B virus, HePAD38, 168 h, 7 days incubation, extracellular HBV DNA by QPCR, read-out: Anti-HBV EC50
Description: The anti-HBV activity of the Capsid Assembly Modulators (CAMs) was evaluated in a cell based assay utilizing the human hepatoma cell line HepAD38 (Ladner, S K., et al., 1998). HepAD38 cells were derived from the parental line, HepG2, that were stably transfected with a construct containing an HBV genome (genotype D, serotype ayw) under the control of a tetracycline repressible CMV promoter. Upon removal of tetracycline, viral pre-genomic RNA (pgRNA) and mRNAs are expressed and infectious viral particles are assembled and secreted into the culture medium providing a reliable, robust system to measure multiple steps of the HBV life cycle. Disruption of capsid formation results in reduced levels of DNA-containing virus particles that are released into the culture supernatant. To quantify the effect of CAMs on HBV replication, we developed a sensitive QPCR-based assay that measures extracellular HBV DNA levels upon treatment of HepAD38 cells with various concentrations of test compounds.
HepAD38 cells were maintained in DMEM/F12 medium containing 10% FBS, 400 μg/mL G418 and 0.3 μg/mL tetracycline (tet+ media) to maintain repression of HBV replication. To evaluate each compound, HepAD38 cells were seeded into 24-well collagen coated culture plates (Corning BioCoat) at a density of 200,000 cells per well in 1 mL of medium without tetracycline (tet-media) and allowed to adhere overnight at 37° C., 5% CO2 in a humidified incubator. The following day, media was refreshed and a dose range of each compound was prepared by performing 1 log10 serial dilutions in 100% DMSO at 200× the desired assay concentration. Dilutions were then added to the cells resulting in a final dose range of 1 μM to 10 pM and the plates were returned to the incubator. Following 7 days of incubation, culture supernatants were harvested and HBV DNA levels were evaluated by QPCR and compared to the vehicle treated control wells (i.e. DMSO alone).
To quantify HBV DNA levels, cell culture supernatants were diluted 1:10 in sterile, nuclease-free water (Gibco). The diluted supernatants were subsequently added to a PCR master mix containing 1× Roche Light Cycler Master Mix, 0.5 μM forward primer, 0.5 μM reverse primer (Fwd: 5′-[…] (SEQ ID NO 1); Rev: 5′-[…] (SEQ ID NO 2)), 0.2 μM Roche Universal Probe Library Probe 25. The volume was brought to 20 μL with nuclease-free water and amplification of the HBV target sequence was performed using a Roche LightCycler 480 QPCR instrument. PCR extended out to 45 cycles with each cycle consisting of a denaturation step at 95° C. for 10 sec., followed by an annealing step at 60° C. for 10 sec. and a brief extension step at 72° C. for 1 sec.
Extracellular HBV DNA levels, expressed in copies/mL, were determined by comparison to a standard curve (10^2-10^9 copies/mL) using the Roche LightCycler analysis software. These values were subsequently converted to percent inhibition of HBV replication by dividing the HBV DNA levels in the experimental samples with those obtained from the vehicle control (˜1-2×10^5 copies/mL). Potency, expressed as an EC50 (the effective concentration required to inhibit 50% of HBV replication), was calculated from the dose-response curve using a 4-parameter non-linear regression analysis (GraphPad Prism). The nucleoside analog inhibitor entecavir was used as a positive control to validate each assay run. The EC50 value of entecavir in the HepAD38 assay was 0.5 nM, as previously reported in the literature.

[2] = In vitro cytotoxicity assay (MTT cell viability) in HepG2 cells; format: cell-based, human; details: human
Description: To evaluate antiviral selectivity, the cytotoxic activity of each compound was determined using a standard cell viability assay performed on the parental HepG2 cell line. Cell viability was determined by measuring the conversion of 3-(4,5-dimethylthiazol-2-yl)-2,5-diphenyltetrazolium bromide (MTT) to the insoluble formazan salt crystal that occurs in live cells. Briefly, HepG2 cells were seeded in 96-well plates at a density of 20,000 cells per well in […] (complete growth medium) and allowed to adhere overnight in a 37° C., […] humidified incubator. The next day, test agents were prepared by performing 8 half-log10 serial dilutions in 100% DMSO at 200× the final desired concentration in the assay. Compounds were tested over a range of concentrations from 30 μM to 1.0 nM in the assay. HepG2 cells were incubated in the presence of various concentrations of CAMs for 7 days in a 37° C., […] humidified incubator. At the completion of the 7-day incubation period, MTT reagent was added to each well and the mixture was incubated for an additional 3-4 hours. At the completion of the incubation period, all wells were aspirated to remove the culture medium. The formazan crystals were solubilized from the cell monolayers with 100% DMSO. Plates were briefly mixed on an orbital shaker and absorbance was measured at 492 nm using a Perkin-Elmer EnVision multi-label plate reader. All absorbance values were converted to a percentage of the signal obtained from the vehicle treated controls. Absorbance values at 492 nm are directly proportional to the number of viable cells present in the sample. A CC50 value (cytotoxic concentration that results in loss of 50% cell viability) was calculated from the dose-response curve by 4-parameter, non-linear regression analysis using the GraphPad Prism software. The positive control compound, staurosporine, reduced the viability of HepG2 cells in a dose-dependent manner (CC50=100 nM).

Structure (SMILES)	EC50 [1] [nM]	CC50 at 7 days [2] [µM]
Cc1c(C(=O)Nc2ccc(F)c(C#N)c2)c(C)n(C)c1C(=O)C(=O)N[C@]1(C)CC[C@@H](O)CC1 [Example 16, N-(3-cyano-4-fluorophenyl)-5-(2-(((1r,4r)-4-hydroxy-1-methylcyclohexyl)amino)-2-oxoacetyl)-1,2,4-trimethyl-1H-pyrrole-3-carboxamide]	< 50	> 30
Cc1c(C(=O)Nc2ccc(F)c(C#N)c2)c(C)n(C)c1C(=O)C(=O)N[C@H]1CC[C@@H](O)CC1 [Example 17, N-(3-cyano-4-fluorophenyl)-5-(2-(((1s,4s)-4-hydroxycyclohexyl)amino)-2-oxoacetyl)-1,2,4-trimethyl-1H-pyrrole-3-carboxamide]	< 50	> 30
Cc1c(C(=O)Nc2ccc(F)c(Br)c2)c(C)n(C)c1C(=O)C(=O)N[C@]1(C)CC[C@@H](O)CC1 [Example 18, N-(3-bromo-4-fluorophenyl)-5-(2-(((1r,4r)-4-hydroxy-1-methylcyclohexyl)amino)-2-oxoacetyl)-1,2,4-trimethyl-1H-pyrrole-3-carboxamide]	< 50	> 30
Cc1c(C(=O)Nc2ccc(F)c(Br)c2)c(C)n(C)c1C(=O)C(=O)N[C@H]1CC[C@@H](O)CC1 [Example 19, N-(3-bromo-4-fluorophenyl)-5-(2-(((1s,4s)-4-hydroxycyclohexyl)amino)-2-oxoacetyl)-1,2,4-trimethyl-1H-pyrrole-3-carboxamide]	< 50	> 30
Cc1cc(NC(=O)c2c(C)c(C(=O)C(=O)N[C@H]3[C@@H]4CC[C@@H](C4)[C@H]3CO)n(C)c2C)ccc1F [Example 20, N-(4-fluoro-3-methylphenyl)-5-(2-(((1R,2S,3R,4S)-3-(hydroxymethyl)bicyclo[2.2.1]heptan-2-yl)amino)-2-oxoacetyl)-1,2,4-trimethyl-1H-pyrrole-3-carboxamide]	< 50	> 30
Cc1cc(NC(=O)c2c(C)c(C(=O)C(=O)N[C@H]3[C@H]4CC[C@H](C4)[C@H]3CO)n(C)c2C)ccc1F [Example 21, N-(4-fluoro-3-methylphenyl)-5-(2-(((1S,2S,3R,4R)-3-(hydroxymethyl)bicyclo[2.2.1]heptan-2-yl)amino)-2-oxoacetyl)-1,2,4-trimethyl-1H-pyrrole-3-carboxamide]	< 50	> 30
Cc1cc(NC(=O)c2c(C)c(C(=O)C(=O)N[C@H]3C[C@@H]4CC[C@H]3C4)n(C)c2C)ccc1F [Example 22, 5-(2-(((1S,2S,4R)-bicyclo[2.2.1]heptan-2-yl)amino)-2-oxoacetyl)-N-(4-fluoro-3-methylphenyl)-1,2,4-trimethyl-1H-pyrrole-3-carboxamide]	< 50	5 to 30
Cc1cc(NC(=O)c2c(C)c(C(=O)C(=O)NC3C[C@H]4C[C@@H]3CC4O)n(C)c2C)ccc1F (stereo partly drawn) [Example 23, N-(4-fluoro-3-methylphenyl)-5-(2-(((1R,4R)-5-hydroxybicyclo[2.2.1]heptan-2-yl)amino)-2-oxoacetyl)-1,2,4-trimethyl-1H-pyrrole-3-carboxamide]	< 50	> 30
Cc1cc(NC(=O)c2c(C)c(C(=O)C(=O)NC3C[C@@H]4CC(O)[C@H]3C4)n(C)c2C)ccc1F (stereo partly drawn) [Example 24, N-(4-fluoro-3-methylphenyl)-5-(2-(((1S,4R)-6-hydroxybicyclo[2.2.1]heptan-2-yl)amino)-2-oxoacetyl)-1,2,4-trimethyl-1H-pyrrole-3-carboxamide]	< 50	> 30
Cc1c(C(=O)Nc2cc(F)c(F)c(F)c2)c(C)n(C)c1C(=O)C(=O)N[C@]1(C)CC[C@@H](O)CC1 [Example 25, 5-(2-(((1r,4r)-4-hydroxy-1-methylcyclohexyl)amino)-2-oxoacetyl)-1,2,4-trimethyl-N-(3,4,5-trifluorophenyl)-1H-pyrrole-3-carboxamide]	< 50	> 30
CCOC(=O)CO[C@H]1CC[C@@H](NC(=O)C(=O)c2c(C)c(C(=O)Nc3ccc(F)c(C)c3)c(C)n2C)CC1 [Example 26, ethyl 2-(((1s,4s)-4-(2-(4-((4-fluoro-3-methylphenyl)carbamoyl)-1,3,5-trimethyl-1H-pyrrol-2-yl)-2-oxoacetamido)cyclohexyl)oxy) acetate]	> 1000	> 30
Cc1cc(NC(=O)c2c(C)c(C(=O)C(=O)NC3(C)CCN(CC(=O)O)CC3)n(C)c2C)ccc1F [Example 27, 2-(4-(2-(4-((4-fluoro-3-methylphenyl)carbamoyl)-1,3,5-trimethyl-1H-pyrrol-2-yl)-2-oxoacetamido)-4-methylpiperidin-1-yl)acetic acid]	500 to 1000	> 30
Cc1cc(NC(=O)c2c(C)c(C(=O)C(=O)N[C@H]3CCN(CC(=O)O)C3)n(C)c2C)ccc1F [Example 28, (S)-2-(3-(2-(4-((4-fluoro-3-methylphenyl)carbamoyl)-1,3,5-trimethyl-1H-pyrrol-2-yl)-2-oxoacetamido)pyrrolidin-1-yl)acetic acid]	> 1000	> 30
Cc1c(C(=O)NC23CCC(O)(CC2)CC3)c(C)n(C)c1C(=O)C(=O)Nc1cccnc1 [Example 29, N-(4-hydroxybicyclo[2.2.2]octan-1-yl)-1,2,4-trimethyl-5-(2-oxo-2-(pyridin-3-ylamino)acetyl)-1H-pyrrole-3-carboxamide]	> 1000	> 30
Cc1noc(C2(NC(=O)c3c(C)c(C(=O)C(=O)Nc4cccnc4)n(C)c3C)CC2)n1 [Example 30, 1,2,4-trimethyl-N-(1-(3-methyl-1,2,4-oxadiazol-5-yl)cyclopropyl)-5-(2-oxo-2-(pyridin-3-ylamino)acetyl)-1H-pyrrole-3-carboxamide]	> 1000	> 30
Cc1cc(NC(=O)c2c(C)c(C(=O)C(=O)NC3CC(S(C)(=O)=O)C3)n(C)c2C)ccc1F (stereo not shown) [Example 31, N-(4-fluoro-3-methylphenyl)-1,2,4-trimethyl-5-(2-(((1s,3s)-3-(methylsulfonyl)cyclobutyl)amino)-2-oxoacetyl)-1H-pyrrole-3-carboxamide]	< 50	> 30
Cc1c(C(=O)Nc2ccc(F)c(F)c2)c2n(c1C(=O)C(=O)NC1(C)CCN(C(=O)Nc3ccc(F)c(F)c3)CC1)CCCC2 [Example 33, N-(3,4-difluorophenyl)-3-(2-((1-((3,4-difluorophenyl)carbamoyl)-4-methylpiperidin-4-yl)amino)-2-oxoacetyl)-2-methyl-5,6,7,8-tetrahydroindolizine-1-carboxamide]	< 50	0.5 to 4.99
